# Assay results as given in publication PMC4303209, “A novel phosphatidylinositol 3-kinase (PI3K) inhibitor directs a potent FOXO-dependent, p53-independent cell cycle arrest phenotype characterized by the differential induction of a subset of FOXO-regulated genes” (Breast Cancer Research : BCR, 2014).
# System: MCF-7 breast cancer cells
# Assay: Microarray gene expression analysis (Agilent whole human genome 4 x 44K; compound vs DMSO, LIMMA log2 fold change)
# Type: cell-based
# Conditions: Apoptosis genes
smiles,measurement,setting,value
Oc1cccc(-c2nc(N3CCOCC3)c3oc4ncccc4c3n2)c1 [PI-103],ITGB3BP log2FC,Gene 23421,0.693
same,RYBP log2FC,Gene 23429,0.361
same,HEY2 log2FC,Gene 23493,-0.116
same,SCRIB log2FC,Gene 23513,0.029
same,CLCF1 log2FC,Gene 23529,-0.682
same,PRAME log2FC,Gene 23532,-0.450
same,DDAH2 log2FC,Gene 23564,0.378
same,ZNF346 log2FC,Gene 23567,-0.012
same,CASP14 log2FC,Gene 23581,-0.041
same,NUP62 log2FC,Gene 23636,-0.627
same,PPP1R15A log2FC,Gene 23645,0.513
same,AIPL1 log2FC,Gene 23746,0.177
same,FKBP8 log2FC,Gene 23770,0.044
same,BCL2L13 log2FC,Gene 23786,0.110
same,MTCH1 log2FC,Gene 23787,0.149
same,NGEF log2FC,Gene 25791,0.857
same,SPDEF log2FC,Gene 25803,-0.186
same,TNFAIP8 log2FC,Gene 25816,0.677
same,PRDX5 log2FC,Gene 25824,0.047
same,BRMS1 log2FC,Gene 25855,-0.476
same,SIN3A log2FC,Gene 25942,0.891
same,HIGD1A log2FC,Gene 25994,-0.106
same,SERBP1 log2FC,Gene 26135,0.167
same,NOC2L log2FC,Gene 26155,-0.855
same,TIAM2 log2FC,Gene 26230,0.365
same,AATF log2FC,Gene 26574,-0.415
same,GREM1 log2FC,Gene 26585,-0.405
same,CKAP2 log2FC,Gene 26586,0.629
same,CYFIP2 log2FC,Gene 26999,0.053
same,NGFRAP1 log2FC,Gene 27018,0.277
same,ANKRD1 log2FC,Gene 27063,0.350
same,GHITM log2FC,Gene 27069,0.386
same,BBC3 log2FC,Gene 27113,2.072
same,CIDEB log2FC,Gene 27141,-0.033
same,GLS2 log2FC,Gene 27165,0.410
same,TNFRSF21 log2FC,Gene 27242,-1.071
same,PDCD4 log2FC,Gene 27250,1.703
same,KLHL20 log2FC,Gene 27252,0.115
same,CECR2 log2FC,Gene 27443,-0.150
same,DBNL log2FC,Gene 28988,-0.248
same,HIPK2 log2FC,Gene 28996,-0.140
same,SAP30BP log2FC,Gene 29115,-0.468
same,LGALS13 log2FC,Gene 29124,-0.059
same,CARD10 log2FC,Gene 29775,-0.449
same,SENP1 log2FC,Gene 29843,0.227
same,TFPT log2FC,Gene 29844,-0.472
same,PNMA3 log2FC,Gene 29944,0.668
same,UBQLN1 log2FC,Gene 29979,-0.069
same,ERO1L log2FC,Gene 30001,0.078
same,SH3KBP1 log2FC,Gene 30011,0.268
same,KCNIP3 log2FC,Gene 30818,0.232
same,RRM2B log2FC,Gene 50484,0.526
same,G0S2 log2FC,Gene 50486,-0.054
same,NOX4 log2FC,Gene 50507,0.041
same,CHST11 log2FC,Gene 50515,-0.946
same,ARHGEF4 log2FC,Gene 50649,0.008
same,ARHGEF3 log2FC,Gene 50650,0.506
same,GLRX2 log2FC,Gene 51022,-0.261
same,RPS27L log2FC,Gene 51065,0.277
same,APIP log2FC,Gene 51074,0.039
same,NDUFA13 log2FC,Gene 51079,-0.041
same,GAL log2FC,Gene 51083,-0.333
same,SH3GLB1 log2FC,Gene 51100,0.561
same,APH1A log2FC,Gene 51107,-0.371
same,UTP11L log2FC,Gene 51118,-0.906
same,IER3IP1 log2FC,Gene 51124,0.357
same,ANGPTL4 log2FC,Gene 51129,-0.819
same,ING4 log2FC,Gene 51147,1.595
same,LEF1 log2FC,Gene 51176,-0.888
same,BFAR log2FC,Gene 51283,0.201
same,PLAC8 log2FC,Gene 51316,-0.057
same,TNFRSF12A log2FC,Gene 51330,-0.619
same,ANGPT4 log2FC,Gene 51378,0.049
same,DDX41 log2FC,Gene 51428,-0.065
same,GULP1 log2FC,Gene 51454,1.663
same,TRIAP1 log2FC,Gene 51499,-0.858
same,ZC3HC1 log2FC,Gene 51530,0.156
same,PIAS4 log2FC,Gene 51588,-0.121
same,PIGT log2FC,Gene 51604,0.362
same,TAF9B log2FC,Gene 51616,0.327
same,PTRH2 log2FC,Gene 51651,-0.374
same,WWOX log2FC,Gene 51741,-0.808
same,SIX4 log2FC,Gene 51804,0.497
same,IL20RA log2FC,Gene 53832,0.039
same,CYCS log2FC,Gene 54205,-0.602
same,WNT4 log2FC,Gene 54361,-0.419
same,DNAJC10 log2FC,Gene 54431,0.610
same,ZFAND6 log2FC,Gene 54469,0.333
same,ADAMTSL4 log2FC,Gene 54507,-0.373
same,DDIT4 log2FC,Gene 54541,-1.201
same,ING3 log2FC,Gene 54556,0.724
same,RRN3 log2FC,Gene 54700,-0.333
same,AHI1 log2FC,Gene 54806,0.380
same,QRICH1 log2FC,Gene 54870,0.076
same,TMEM161A log2FC,Gene 54929,-0.337
same,PHIP log2FC,Gene 55023,1.071
same,USP47 log2FC,Gene 55031,0.614
same,OXR1 log2FC,Gene 55074,0.376
same,UACA log2FC,Gene 55075,0.829
same,IFT57 log2FC,Gene 55081,0.433
same,XKR8 log2FC,Gene 55113,0.252
same,SHQ1 log2FC,Gene 55164,-0.188
same,FAIM log2FC,Gene 55179,0.119
same,MAP1S log2FC,Gene 55201,-0.149
same,ATAD3A log2FC,Gene 55210,-0.126
same,STEAP3 log2FC,Gene 55240,-0.441
same,RHOT1 log2FC,Gene 55288,0.535
same,RFK log2FC,Gene 55312,0.631
same,PARL log2FC,Gene 55486,-0.181
same,TNFRSF19 log2FC,Gene 55504,-0.091
same,CCAR1 log2FC,Gene 55749,0.552
same,PCID2 log2FC,Gene 55795,0.323
same,RNF130 log2FC,Gene 55819,0.00747
same,EAF2 log2FC,Gene 55840,0.144
same,PSENEN log2FC,Gene 55851,-0.013
same,BCAP29 log2FC,Gene 55973,0.083
same,TEX11 log2FC,Gene 56159,0.000672
same,CTNNBL1 log2FC,Gene 56259,-0.138
same,DIABLO log2FC,Gene 56616,-0.156
same,ASAH2 log2FC,Gene 56624,-0.210
same,TRIM39 log2FC,Gene 56658,-0.128
same,BARHL1 log2FC,Gene 56751,-0.298
same,FMN2 log2FC,Gene 56776,0.00262
same,SPHK2 log2FC,Gene 56848,-0.341
same,C8orf4 log2FC,Gene 56892,0.00123
same,MEIS3 log2FC,Gene 56917,-0.122
same,DUSP22 log2FC,Gene 56940,0.209
same,CIAPIN1 log2FC,Gene 57019,-0.420
same,PCBP4 log2FC,Gene 57060,-0.275
same,AVEN log2FC,Gene 57099,-0.638
same,CAMK1D log2FC,Gene 57118,-0.189
same,RTN4 log2FC,Gene 57142,-0.088
same,PAK7 log2FC,Gene 57144,0.451
same,BIRC6 log2FC,Gene 57448,0.144
same,TAOK1 log2FC,Gene 57551,0.399
same,SEMA6A log2FC,Gene 57556,0.047
same,SH3RF1 log2FC,Gene 57630,-0.495
same,USP28 log2FC,Gene 57646,0.030
same,GPAM log2FC,Gene 57678,-0.052
same,CHD8 log2FC,Gene 57680,-0.161
same,TRIB3 log2FC,Gene 57761,0.076
same,NGB log2FC,Gene 58157,-0.260
same,RBM25 log2FC,Gene 58517,0.334
same,SAV1 log2FC,Gene 60485,0.586
same,PROK2 log2FC,Gene 60675,-0.058
same,ELMO2 log2FC,Gene 63916,0.585
same,CIDEC log2FC,Gene 63924,0.292
same,FIGNL1 log2FC,Gene 63979,-0.235
same,PERP log2FC,Gene 64065,0.731
same,MOAP1 log2FC,Gene 64112,0.507
same,RRAGC log2FC,Gene 64121,1.556
same,IFIH1 log2FC,Gene 64135,0.872
same,ZMAT3 log2FC,Gene 64393,-0.151
same,ATG3 log2FC,Gene 64422,0.194
same,SUDS3 log2FC,Gene 64426,-0.027
same,MICAL1 log2FC,Gene 64780,-0.125
same,PLEKHG2 log2FC,Gene 64857,-0.516
